We go through two substances from patent US20220340635A1, “FUSION PROTEIN FOR TREATMENT OF METABOLIC DISEASE” (ZHEJIANG DOER BIOLOGICS CORPORATION, priority 2019, published 2022).

No end group written: not given here.

The conditions of data set [1]: in vivo; cited from earlier work.
In data set [2] the target is Recombinant DPP-IV enzyme (Homo sapiens, UniProt P27487). Nature of the data set: DPP-IV enzyme resistance (GCGR bioactivity after DPP-IV treatment). The class given is in vitro ADME. The conditions noted are these: 5 μM protein, 10 nM recombinant DPP-IV, 37° C., 24 hours; GCGR bioactivity after/before treatment. As to the method: The purified fusion protein was dissolved in 10 mM of HEPES buffer (containing 0.05 mg/ml BSA) to a final concentration of 5 μM. Recombinant DPP-IV enzyme (final concentration of 10 nM) was added and incubated at 37° C. for 24 hours before detection of GCGR bioactivity. Activity retention rate=(activity after DPP-IV enzyme treatment/activity before DPP-IV enzyme treatment)×100%.
Recombinant DPP-IV enzyme, sequence (P27487 whole entry, species assumed, the tested form may be a part): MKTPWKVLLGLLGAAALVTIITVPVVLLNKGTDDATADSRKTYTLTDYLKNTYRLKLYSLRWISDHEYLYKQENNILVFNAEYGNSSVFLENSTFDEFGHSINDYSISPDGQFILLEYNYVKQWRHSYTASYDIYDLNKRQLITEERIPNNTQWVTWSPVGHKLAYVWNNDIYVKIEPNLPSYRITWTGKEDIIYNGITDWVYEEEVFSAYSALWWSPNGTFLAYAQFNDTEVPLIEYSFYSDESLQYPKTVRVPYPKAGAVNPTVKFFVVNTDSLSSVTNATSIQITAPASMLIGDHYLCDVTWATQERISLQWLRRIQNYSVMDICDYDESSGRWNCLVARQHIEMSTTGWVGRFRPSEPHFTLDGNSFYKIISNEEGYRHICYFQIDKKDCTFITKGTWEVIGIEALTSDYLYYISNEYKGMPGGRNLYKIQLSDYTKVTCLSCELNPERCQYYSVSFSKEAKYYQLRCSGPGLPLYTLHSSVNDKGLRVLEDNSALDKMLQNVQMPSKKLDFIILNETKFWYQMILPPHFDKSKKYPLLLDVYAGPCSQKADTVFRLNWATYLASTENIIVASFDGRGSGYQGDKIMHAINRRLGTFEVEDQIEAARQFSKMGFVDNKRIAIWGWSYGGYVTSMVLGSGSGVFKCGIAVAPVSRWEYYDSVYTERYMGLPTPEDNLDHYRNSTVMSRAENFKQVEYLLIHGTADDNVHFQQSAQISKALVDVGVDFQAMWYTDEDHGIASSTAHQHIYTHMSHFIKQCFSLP

Consider Taspoglutide, for which the “Anti-drug antibody positive rate” value in data set [1] was 49%.

For “H-D-Ser-QGTFTSDYSKYLDSQAAQDFVQWLMNGGPSSGAPPPS (not fully specified (N-terminus)) [GDSerGS, control]”, the “Activity preservation rate (%)” value in data set [2] was found to be 99.2%.
